Here are results for 35 compounds from patent publication US20240270751A1, “Pyrazolopyridinone Compounds” (BeiGene Ltd., priority 2021, published 2024).

SMILES strings stand for the structures. A value given as a limit tells only on which side of the number the result lay.

Assay [1] concerns the target DGKα (Homo sapiens (Human), UniProt P23743). As to the kind of experiment: Biochemical DGK IC50 assay, DGKα ADP-Glo assay. Conditions: 7.5 nM enzyme, 140 μM ATP, 80 μM DAG. Put shortly: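 Compounds at final 1.55˜10000 nM or 23.3˜150000 nM were tested against full-length DGKα. Substrate was lipid micelles of DAG and PS resuspended in 25 mM HEPES pH 7.0 with 0.5 mM EDTA and 160 mM octyl β-D-glucopyranoside. ADP formed was detected by ADP-Glo.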
On the technique in general: ADP-Glo turns the ADP formed in a reaction into a luminescent signal.

Assay [2] deals with DGKζ (Homo sapiens (Human), UniProt Q13574). Briefly: Biochemical DGK IC50 assay, DGKζ ADP-Glo assay. To be noted: 0.5 nM enzyme, 140 μM ATP, 80 μM DAG; read-out: DGKζ ADP-Glo assay IC50. Put shortly: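 ADP formation measured by ADP-Glo luminescence, with test compounds at final 1.55–10000 nM or 23.3–150000 nM. Enzyme: purified full-length human DGKζ from Sf9 insect cells; substrate: DAG/PS micelles in 25 mM HEPES pH 7.0, 0.5 mM EDTA, octyl glucoside.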
Chain of DGKζ (Q13574 other isoform, or with tags, fused parts or gaps): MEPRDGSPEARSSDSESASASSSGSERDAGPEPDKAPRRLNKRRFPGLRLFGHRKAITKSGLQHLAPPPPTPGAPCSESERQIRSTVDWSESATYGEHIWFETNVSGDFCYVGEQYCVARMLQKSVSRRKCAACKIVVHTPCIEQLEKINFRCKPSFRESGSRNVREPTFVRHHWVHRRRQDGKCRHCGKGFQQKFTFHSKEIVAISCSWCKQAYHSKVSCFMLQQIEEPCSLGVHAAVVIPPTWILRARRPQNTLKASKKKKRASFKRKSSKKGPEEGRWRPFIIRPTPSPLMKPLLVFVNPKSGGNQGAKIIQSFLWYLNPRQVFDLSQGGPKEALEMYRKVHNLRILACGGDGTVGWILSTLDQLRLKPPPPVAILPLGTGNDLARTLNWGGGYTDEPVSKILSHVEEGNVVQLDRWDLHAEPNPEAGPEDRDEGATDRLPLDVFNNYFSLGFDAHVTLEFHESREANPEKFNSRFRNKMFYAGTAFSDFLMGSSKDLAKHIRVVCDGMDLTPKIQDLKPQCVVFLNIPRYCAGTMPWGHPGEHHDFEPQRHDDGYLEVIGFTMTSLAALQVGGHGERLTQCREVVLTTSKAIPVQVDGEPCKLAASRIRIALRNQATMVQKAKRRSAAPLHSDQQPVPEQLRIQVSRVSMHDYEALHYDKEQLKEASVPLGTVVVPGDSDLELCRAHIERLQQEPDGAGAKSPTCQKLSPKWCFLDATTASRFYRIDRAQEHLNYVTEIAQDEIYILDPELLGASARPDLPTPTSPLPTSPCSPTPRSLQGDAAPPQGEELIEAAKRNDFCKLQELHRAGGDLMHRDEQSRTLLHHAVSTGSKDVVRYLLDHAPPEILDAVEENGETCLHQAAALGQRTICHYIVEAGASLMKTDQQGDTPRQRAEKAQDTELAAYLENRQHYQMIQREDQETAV

Chain of DGKα (P23743 whole entry): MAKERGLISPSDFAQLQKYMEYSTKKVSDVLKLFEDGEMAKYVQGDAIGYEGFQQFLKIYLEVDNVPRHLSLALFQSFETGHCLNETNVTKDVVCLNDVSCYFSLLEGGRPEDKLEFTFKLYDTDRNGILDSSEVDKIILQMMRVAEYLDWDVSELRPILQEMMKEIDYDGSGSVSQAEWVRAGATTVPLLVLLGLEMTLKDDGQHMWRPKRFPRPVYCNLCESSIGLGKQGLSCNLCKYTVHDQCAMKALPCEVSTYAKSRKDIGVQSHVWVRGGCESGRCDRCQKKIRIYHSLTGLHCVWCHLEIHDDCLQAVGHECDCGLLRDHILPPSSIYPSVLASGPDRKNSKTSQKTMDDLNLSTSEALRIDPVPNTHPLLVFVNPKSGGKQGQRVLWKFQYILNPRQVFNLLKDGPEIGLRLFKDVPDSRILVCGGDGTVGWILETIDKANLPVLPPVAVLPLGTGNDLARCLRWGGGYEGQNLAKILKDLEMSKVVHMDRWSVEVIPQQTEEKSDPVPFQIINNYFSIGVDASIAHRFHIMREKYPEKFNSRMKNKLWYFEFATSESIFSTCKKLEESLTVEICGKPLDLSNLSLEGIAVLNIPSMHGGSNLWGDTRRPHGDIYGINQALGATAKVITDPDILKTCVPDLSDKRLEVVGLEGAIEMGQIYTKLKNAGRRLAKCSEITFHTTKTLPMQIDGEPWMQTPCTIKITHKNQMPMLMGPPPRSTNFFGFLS

For orientation: IC50 means the concentration needed to halve the response being measured. For the compound `Cc1cnc2ccc(C(C)N3C[C@H](C)N(c4cc(=O)n(C)c5cn(CC#N)nc45)C[C@H]3C)cc2n1` (stereo partly drawn) [Compound A269 (RII), 2-(7-((2S,5R)-2,5-dimethyl-4-(1-(3-methylquinoxalin-6-yl)ethyl)piperazin-1-yl)-4-methyl-5-oxo-4,5-dihydro-2H-pyrazolo[4,3-b]pyridin-2-yl)acetonitrile], the IC50 in assay [1] was over 10000 nM; in assay [2], 35 nM.

Consider `CC[C@H]1CN(C(C)c2ccc(C(F)(F)F)cc2F)[C@H](CC)CN1c1cc(=O)n(C)c2cn(CC#N)nc12` (single isomer, unassigned) [Compound A69b], for which the IC50 was determined as 3000 nM in assay [1] and 4900 nM in assay [2].

Regarding `CCS(=O)(=O)N1CC(CC#N)(n2cc3c(n2)c(N2C[C@@H](C)N(C(C)c4ccc5nccnc5c4)C[C@@H]2C)cc(=O)n3C)C1` (stereo partly drawn) [Compound A19, 2-(3-(7-((2S,5R)-2,5-dimethyl-4-(1-(quinoxalin-6-yl)ethyl)piperazin-1-yl)-4-methyl-5-oxo-4,5-dihydro-2H-pyrazolo[4,3-b]pyridin-2-yl)-1-(ethylsulfonyl)azetidin-3-yl)acetonitrile], the half-inhibitory concentration (IC50) in assay [1] was over 150000 nM; in assay [2], 24000 nM.

Turning to `CC(c1ccc2nccnc2c1)N1C[C@H](C)N(c2c(F)c(=O)n(C)c3cn(CC#N)nc23)C[C@H]1C` (stereo partly drawn) [Compound A168, 2-(7-((2S,5R)-2,5-dimethyl-4-(1-(quinoxalin-6-yl)ethyl)piperazin-1-yl)-6-fluoro-4-methyl-5-oxo-4,5-dihydro-2H-pyrazolo[4,3-b]pyridin-2-yl)acetonitrile], the concentration for half-maximal inhibition (IC50) in assay [1] turned out to be 6080 nM; in assay [2] it was 28 nM.

On to `CC[C@H]1CN(C(C)c2cnc(C)n2CC)[C@H](CC)CN1c1cc(=O)n(C)c2cn(CC#N)nc12` (stereo partly shown) [Compound A219], for which the half-maximal inhibitory concentration (IC50) in assay [1] and in assay [2] was over 10000 nM in each case.

`CC[C@H]1CN(C(C)c2ncc(OC(F)(F)F)cc2F)[C@H](CC)CN1c1cc(=O)n(C)c2cn(CC#N)nc12` (single isomer, unassigned) [Compound A362b]: the IC50 in assay [1] was determined as 33 nM; in assay [2], 300 nM.

As for `CC[C@H]1CN(C(C)c2ccc3nc(OC)cnc3c2)[C@H](CC)CN1c1cc(=O)n(C)c2cn(CC#N)nc12` (single isomer, unassigned) [Compound A281a], the IC50 in assay [1] is 6650 nM; in assay [2] it was 77 nM.

For `CC(c1ccccc1)N1C[C@H](C)N(c2cc(=O)n(C)c3cn(CC#N)nc23)C[C@H]1C` (stereo partly shown) [Compound A37], the IC50 in assay [1] is 140 nM; in assay [2] it was 5400 nM.

`CC[C@H]1CN(C(C)c2ccc(C3CC3)nc2)[C@H](CC)CN1c1cc(=O)n(C)c2cn(CC#N)nc12` (stereo partly drawn) [Compound A350, 2-(7-((2S,5R)-4-(1-(6-cyclopropylpyridin-3-yl)ethyl)-2,5-diethylpiperazin-1-yl)-4-methyl-5-oxo-4,5-dihydro-2H-pyrazolo[4,3-b]pyridin-2-yl)acetonitrile]: the IC50 in assay [1] turned out to be 945 nM; in assay [2], 249 nM.

For the compound `CC[C@H]1CN(C(C)c2cnccn2)[C@H](CC)CN1c1cc(=O)n(C)c2cn(CC#N)nc12` (stereo partly shown) [Compound A88], the half-inhibitory concentration (IC50) in assay [1] was found to be 118 nM; in assay [2] it was 9440 nM.

`CC[C@H]1CN(C(C)c2ccc3nccnc3c2)[C@H](CC)CN1c1cc(=O)n(C)c2cn(CC#N)nc12` (single isomer, unassigned) [Compound A28b]: the IC50 in assay [1] amounted to 983 nM; in assay [2] it was 463 nM.

Consider `CC[C@H]1CN(C(C)c2ccc(C(=O)N3CCC(F)(F)CC3)cc2)[C@H](CC)CN1c1cc(=O)n(C)c2cn(CC#N)nc12` (stereo partly shown) [Compound A382], for which the concentration for half-maximal inhibition (IC50) worked out at 79 nM in assay [1] and 499 nM in assay [2].

In the case of `CC[C@H]1CN(C(C)c2ccc3nc(O)cnc3c2)[C@H](CC)CN1c1cc(=O)n(C)c2cn(CC#N)nc12` (single isomer, unassigned) [Compound A282b], the IC50 in assay [1] was found to be 10500 nM; in assay [2] it was 6960 nM.

As to `CC[C@H]1CN(C(C)c2ccn3ncnc3c2)[C@H](CC)CN1c1cc(=O)n(C)c2cn(CC#N)nc12` (stereo partly shown) [Compound A49], the figures for the half-maximal inhibitory concentration (IC50) in assay [1] and in assay [2] were 130 nM and 200 nM, respectively.

Consider `CC[C@H]1CN(C(C)c2cccc(=O)n2CC)[C@H](CC)CN1c1cc(=O)n(C)c2cn(CC#N)nc12` (stereo partly shown) [Compound A207], for which the 50% inhibitory concentration (IC50) in assay [1] is over 10000 nM; in assay [2] it was 4050 nM.

As for `CC[C@@H]1CN(c2cc(=O)[nH]c3cn(CC#N)nc23)[C@@H](C)CN1C(C)c1ccc2nccnc2c1` (single isomer, unassigned) [Compound A177a], the IC50 in assay [1] was determined as 8210 nM; in assay [2], 70 nM.

As to `Cc1cnc2ccc([C@@H](C)N3C[C@H](C)N(c4cc(=O)n(C)c5cn(CC#N)nc45)C[C@H]3C)cc2n1` [Compound A269c, 2-(7-((2S,5R)-2,5-dimethyl-4-((R)-1-(3-methylquinoxalin-6-yl)ethyl)piperazin-1-yl)-4-methyl-5-oxo-4,5-dihydro-2H-pyrazolo[4,3-b]pyridin-2-yl)acetonitrile], the concentration for half-maximal inhibition (IC50) in assay [1] and in assay [2] was over 10000 nM each time.

Consider `CC[C@H]1CN(C(C)c2ccc3nccnc3c2)[C@H](CC)CN1c1cc(=O)n(CC)c2cn(CC#N)nc12` (stereo partly drawn) [Compound A47, 2-(7-((2S,5R)-2,5-diethyl-4-(1-(quinoxalin-6-yl)ethyl)piperazin-1-yl)-4-ethyl-5-oxo-4,5-dihydro-2H-pyrazolo[4,3-b]pyridin-2-yl)acetonitrile], for which the IC50 worked out at 4200 nM in assay [1] and 9.3 nM in assay [2].

On to `CC[C@H]1CN(C(C)c2ccc3ncccc3c2)[C@H](CC)CN1c1cc(=O)n(C)c2cn(CC#N)nc12` (stereo partly shown) [Compound A60], for which the IC50 in assay [1] came out at 125 nM; in assay [2], 17 nM.

On to `Cc1cc2cc(C(C)N3C[C@H](C)N(c4cc(=O)n(C)c5cn(CC#N)nc45)C[C@H]3C)ccc2cn1` (mixture of isomers) [Compound A304, 2-(7-((2S,5R)-2,5-dimethyl-4-(1-(3-methylisoquinolin-6-yl)ethyl)piperazin-1-yl)-4-methyl-5-oxo-4,5-dihydro-2H-pyrazolo[4,3-b]pyridin-2-yl)acetonitrile], for which the half-maximal inhibitory concentration (IC50) in assay [1] came out at 3660 nM; in assay [2], 763 nM.

In the case of `CC[C@H]1CN(C(C)c2ccc(C(F)(F)F)nc2)[C@H](CC)CN1c1cc(=O)n(C)c2cn(CC#N)nc12` (single isomer, unassigned) [Compound A135b], the figures for the IC50 in assay [1] and in assay [2] were 428 nM and 1300 nM, respectively.

`COCCn1cc2c(n1)c(N1C[C@@H](C)N(C(C)c3ccc4nccnc4c3)C[C@@H]1C)cc(=O)n2C` (stereo partly shown) [Compound A5]: the half-inhibitory concentration (IC50) in assay [1] was 21000 nM; in assay [2] it was 3500 nM.

Consider `CCC(c1ccc2nccnc2c1)N1C[C@H](C)N(c2cc(=O)n(C)c3cn(CC#N)nc23)C[C@H]1C` (stereo partly shown) [Compound A255], for which the IC50 is over 10000 nM in assay [1] and 194 nM in assay [2].

Regarding `CC#CCn1cc2c(n1)c(N1C[C@@H](CC)N(C(C)c3ccc4c(c3)OC(F)(F)O4)C[C@@H]1C)cc(=O)n2C` (single isomer, unassigned) [Compound A392a], the IC50 turned out to be 1320 nM in assay [1] and 1480 nM in assay [2].

For `CC[C@H]1CN(C(C)c2ccc3nccnc3c2)[C@H](C)CN1c1cc(=O)n(C)c2cn(CC#N)nc12` (single isomer, unassigned) [Compound A98a], the IC50 in assay [1] is 1060 nM; in assay [2], 15 nM.

With `CC[C@H]1CN(C(C)c2ccc3nccnc3c2)[C@H](C)CN1c1cc(=O)n(C)c2cn(CC#N)nc12` (stereo partly drawn) [Compound A98, 2-(7-((2S,5R)-2-ethyl-5-methyl-4-(1-(quinoxalin-6-yl)ethyl)piperazin-1-yl)-4-methyl-5-oxo-4,5-dihydro-2H-pyrazolo[4,3-b]pyridin-2-yl)acetonitrile], the half-maximal inhibitory concentration (IC50) worked out at 27000 nM in assay [1] and 410 nM in assay [2].

As for `CC(c1ccc2c(c1)OCCO2)N1C[C@H](C)N(c2cc(=O)n(C)c3cn(CC#N)nc23)C[C@H]1C` (single isomer, unassigned) [Compound A43b], the figures for the IC50 in assay [1] and in assay [2] were 6570 nM and 50 nM, respectively.

Turning to `CCc1c(C(C)N2C[C@H](CC)N(c3cc(=O)n(C)c4cn(CC#N)nc34)C[C@H]2CC)cnn1C` (single isomer, unassigned) [Compound A213b], the IC50 in assay [1] and in assay [2] was over 10000 nM each time.

Take `CC[C@H]1CN(C(C)c2ccncc2C(F)(F)F)[C@H](CC)CN1c1cc(=O)n(C)c2cn(CC#N)nc12` (stereo partly shown) [Compound A118]: the IC50 was over 150000 nM in assay [1] and 185 nM in assay [2].

Consider `Cc1c2c(nn1CC#N)c(N1C[C@@H](C)N(C(C)c3ccc(F)cc3C(F)(F)F)C[C@@H]1C)nc(=O)n2C` (single isomer, unassigned) [Compound A267a], for which the IC50 in assay [1] and in assay [2] was over 10000 nM each time.

Turning to `CC[C@H]1CN(C(C)c2ncc(C(F)(F)F)cc2F)[C@H](CC)CN1c1cc(=O)n(C)c2cn(CC#N)nc12` (single isomer, unassigned) [Compound A354a], the IC50 in assay [1] stood at 996 nM; in assay [2] it was 3130 nM.

`CC[C@H]1CN(C(C)c2ncc(OC(F)(F)F)cc2F)[C@H](CC)CN1c1cc(=O)n(C)c2cn(CC#N)nc12` (single isomer, unassigned) [Compound A362a]: the IC50 in assay [1] amounted to 922 nM; in assay [2], 2510 nM.

Turning to `Cc1nc2cccc(C(C)N3C[C@H](C)N(c4cc(=O)n(C)c5cn(CC#N)nc45)C[C@H]3C)c2o1` (stereo partly shown) [Compound A42], the IC50 was over 10000 nM in assay [1] and 3390 nM in assay [2].

On to `CC[C@H]1CN(C(C)c2nn(CC)cc2C)[C@H](CC)CN1c1cc(=O)n(C)c2cn(CC#N)nc12` (stereo partly shown) [Compound A216], for which the 50% inhibitory concentration (IC50) in assay [1] is over 10000 nM; in assay [2], 2370 nM.

In the case of `CC[C@H]1CN(C(C)c2ccc(C(C)(C)C#N)cc2)[C@H](CC)CN1c1cc(=O)n(C)c2cn(CC#N)nc12` (stereo partly shown) [Compound A338], the half-inhibitory concentration (IC50) is 527 nM in assay [1] and 160 nM in assay [2].
